From publication PMC9795544, “Identifying Novel Inhibitors for Hepatic Organic Anion Transporting Polypeptides by Machine Learning-Based Virtual Screening” (Journal of Chemical Information and Modeling, 2022)
pIC50: −log10 of the molar value. Like-named read-outs stand apart in the source and are kept apart here.

How the values were obtained:
[1] = target: T1, OATP1B3 (Homo sapiens, UniProt Q9NPD5); assay: Pyranine transport inhibition in A431 cells overexpressing OATP1B3; assay type: cell-based; conditions: for IC50: read-out: IC50 (μM) OATP1B3
T1 construct: expressed in transfected cells; host or cells: A431 cells
T1 sequence (Q9NPD5 1-702): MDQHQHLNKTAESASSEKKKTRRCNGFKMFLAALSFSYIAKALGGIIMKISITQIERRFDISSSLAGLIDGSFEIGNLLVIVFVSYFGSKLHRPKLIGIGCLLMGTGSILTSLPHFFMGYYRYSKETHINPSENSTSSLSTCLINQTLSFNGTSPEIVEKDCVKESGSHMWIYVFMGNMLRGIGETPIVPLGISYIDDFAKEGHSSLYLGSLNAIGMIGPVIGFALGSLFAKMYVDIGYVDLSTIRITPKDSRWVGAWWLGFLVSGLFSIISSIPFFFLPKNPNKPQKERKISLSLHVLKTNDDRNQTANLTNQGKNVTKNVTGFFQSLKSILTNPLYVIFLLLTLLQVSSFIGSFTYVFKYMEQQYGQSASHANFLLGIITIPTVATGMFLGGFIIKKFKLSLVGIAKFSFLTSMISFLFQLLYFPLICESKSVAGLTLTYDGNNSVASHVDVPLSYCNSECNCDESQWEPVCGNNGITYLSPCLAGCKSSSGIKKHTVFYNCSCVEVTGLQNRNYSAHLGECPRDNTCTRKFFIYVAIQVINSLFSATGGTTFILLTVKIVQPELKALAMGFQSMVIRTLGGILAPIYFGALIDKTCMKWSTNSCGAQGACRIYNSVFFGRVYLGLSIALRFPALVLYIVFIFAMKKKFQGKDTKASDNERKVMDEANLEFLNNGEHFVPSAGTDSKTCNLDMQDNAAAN
Description: (§1) A431 cells overexpressing OATP1B1, OATP1B3, or OATP2B1 or their mock transfected controls were generated previously[30] and maintained in Dulbecco’s modified Eagle medium (DMEM, Gibco, Thermofisher Scientific, Waltham, MA, US) supplemented with 10% fetal bovine serum, 2 mM L-glutamine, 100 units/mL penicillin, and 100 μg/mL streptomycin. Expression and function of OATPs in the cell lines were checked regularly.
(§2) Interaction with OATP1B1, OATP1B3, or OATP2B1 was tested in an indirect transport assay using pyranine (8-hydroxypyrene-1,3,6-trisulfonic acid trisodium salt, H1529, Sigma, Merck, Budapest, Hungary) as the test substrate[31],[32] A431 cells overexpressing OATP1B1, OATP1B3, or OATP2B1 or their mock transfected controls were seeded on 96-well plates in a density of 8 × 10^4 cells per well in 200 μL of cell culture medium 1 day prior to the transport measurements. […] The transport reaction was started by the addition of 50 μL of uptake buffer containing pyranine in a final concentration of 10 μM (OATP1B1) or 20 μM (OATP1B3 and OATP2B1), and the cells were further incubated at 37 °C for 15 min (OATP1B1 and OATP2B1) or 30 min (OATP1B3). The reaction was stopped by removing the supernatant. After repeated washing with ice-cold PBS, fluorescence was determined in an Enspire plate reader (PerkinElmer, Waltham, MA) with excitation/emission wavelengths of 460/510 nm. OATP-dependent transport was calculated by extracting fluorescence measured in mock transfected cells and normalized to the fluorescence signal obtained in the absence of the tested compounds (100%). Experiments were repeated in at least three biological replicates.

[2] = target: T2, OATP2B1 (Homo sapiens, UniProt O94956); assay: Pyranine transport inhibition in A431 cells overexpressing OATP2B1; assay type: cell-based; conditions: for IC50: read-out: IC50 (μM) OATP2B1
T2 construct: expressed in transfected cells; host or cells: A431 cells
T2 sequence (O94956 1-709): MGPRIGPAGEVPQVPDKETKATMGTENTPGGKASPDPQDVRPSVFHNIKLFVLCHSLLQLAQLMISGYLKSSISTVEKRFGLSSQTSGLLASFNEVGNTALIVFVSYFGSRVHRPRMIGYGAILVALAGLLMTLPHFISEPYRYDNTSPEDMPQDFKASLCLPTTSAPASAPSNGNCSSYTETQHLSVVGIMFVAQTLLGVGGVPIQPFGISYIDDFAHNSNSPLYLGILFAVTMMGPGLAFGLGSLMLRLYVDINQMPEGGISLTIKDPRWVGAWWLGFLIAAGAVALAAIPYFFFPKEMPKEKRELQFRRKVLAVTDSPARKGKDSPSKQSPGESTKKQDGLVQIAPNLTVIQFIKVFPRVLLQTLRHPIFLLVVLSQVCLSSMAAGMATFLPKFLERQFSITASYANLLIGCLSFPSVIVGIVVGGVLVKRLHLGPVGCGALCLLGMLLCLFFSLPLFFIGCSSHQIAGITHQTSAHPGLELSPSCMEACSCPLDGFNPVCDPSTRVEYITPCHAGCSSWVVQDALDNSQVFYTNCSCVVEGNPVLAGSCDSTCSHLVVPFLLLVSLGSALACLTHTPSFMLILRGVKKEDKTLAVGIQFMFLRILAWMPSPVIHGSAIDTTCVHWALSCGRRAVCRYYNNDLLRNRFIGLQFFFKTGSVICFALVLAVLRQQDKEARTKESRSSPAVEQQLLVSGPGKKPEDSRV
Description: as §1, §2

[3] = target: T3, OATP1B1 (Homo sapiens, UniProt Q9Y6L6); assay: Pyranine transport inhibition in A431 cells overexpressing OATP1B1; assay type: cell-based
T3 construct: expressed in transfected cells; host or cells: A431 cells
T3 sequence (Q9Y6L6 1-691): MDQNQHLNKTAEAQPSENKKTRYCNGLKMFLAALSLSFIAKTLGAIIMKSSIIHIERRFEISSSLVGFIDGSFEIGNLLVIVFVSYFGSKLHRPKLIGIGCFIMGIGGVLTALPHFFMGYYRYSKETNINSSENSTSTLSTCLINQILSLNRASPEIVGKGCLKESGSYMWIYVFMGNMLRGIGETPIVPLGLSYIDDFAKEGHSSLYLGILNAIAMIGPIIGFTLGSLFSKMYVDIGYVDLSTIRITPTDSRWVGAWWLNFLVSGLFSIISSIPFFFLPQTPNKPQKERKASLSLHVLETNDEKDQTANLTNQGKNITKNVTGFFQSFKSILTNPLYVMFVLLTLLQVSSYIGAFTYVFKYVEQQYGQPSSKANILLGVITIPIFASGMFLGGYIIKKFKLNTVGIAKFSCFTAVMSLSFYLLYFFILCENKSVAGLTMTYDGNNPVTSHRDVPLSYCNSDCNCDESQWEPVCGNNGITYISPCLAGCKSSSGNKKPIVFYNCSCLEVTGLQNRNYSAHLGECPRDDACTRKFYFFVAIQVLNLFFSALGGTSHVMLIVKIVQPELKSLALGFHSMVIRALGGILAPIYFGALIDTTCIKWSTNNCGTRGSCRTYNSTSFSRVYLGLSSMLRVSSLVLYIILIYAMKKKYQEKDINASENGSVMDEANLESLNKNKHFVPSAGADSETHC
Description: as §1, §2

[4] = test system: OATP2B1; design: method as in earlier work; conditions: ref 1 (Karlgren et al.); cited from earlier work
[5] = test system: OATP2B1; design: method as in PMID 33932771; conditions: highest affinity inhibitor reported in the literature; cited from earlier work
[6] = test system: OATP1B1; design: method as in earlier work; conditions: ref 1 (Karlgren et al.); cited from earlier work
[7] = full dose-response curve, eight concentrations, Hill1 fit
[8] = initial three-point screen (1, 10, 100 μM), category by concentration needed for 50% inhibition, pyranine 20 μM, 30 min, pH 5.5
[9] = initial three-point screen (1, 10, 100 μM), category by concentration needed for 50% inhibition, pyranine 20 μM, 15 min, pH 5.5
[10] = initial three-point screen (1, 10, 100 μM), category by concentration needed for 50% inhibition, pyranine 10 μM, 15 min, pH 5.5
[11] = initial three-point screen (1, 10, 100 μM), category by concentration needed for 50% inhibition, pyranine 10 μM, 15 min, pH 5.5, read-out: IC50 (μM) OATP1B1

## CCC(C)c1ccc(-n2c(SCC(=O)N3c4ccccc4CC3C)nc3ccccc3c2=O)cc1 (stereo not shown) [G4, CCC(C)c1ccc(cc1)N2C(=Nc3ccccc3C2=O)SCC(=O)N4C(C)Cc5ccccc45]
[1]; [7]
  IC50 (μM) OATP1B3: no effect
[1]; [8]
  IC50 (μM) OATP1B3: no effect
[2]; [7]
  IC50: ~6 µM
[2]; [9]
  IC50: 1 to 10 µM
[3]; [7]
  IC50 (μM) OATP1B1: no effect
[3]; [10]
  IC50 (μM) OATP1B1: no effect

## COc1cc2c(cc1NC(=O)CN1C(=O)NC(Cc3c[nH]c4ccccc34)C1=O)oc1ccccc12 (stereo not shown) [G5, COc1cc2c(oc3ccccc23)cc1NC(=O)CN4C(=O)NC(Cc5c[nH]c6ccccc56)C4=O]
[1]; [8]
  IC50: 1 to 10 µM
[2]; [9]
  IC50: 1 to 10 µM
[3]; [11]
  IC50: > 10 µM

## Cc1ccc(N2C(=O)/C(=C\Nc3nc4ccccc4nc3N3CCCC3)c3ccccc3C2=O)c(C)c1 [G6, Cc1ccc(N2C(=O)\C(=C/Nc3nc4ccccc4nc3N5CCCC5)\c6ccccc6C2=O)c(C)c1]
[1]; [8]
  IC50 (μM) OATP1B3: no effect
[2]; [9]
  IC50: > 10 µM
[3]; [10]
  IC50 (μM) OATP1B1: no effect

## O=C(/C=C/c1cn(Cc2ccccc2)nn1)N1CCCC(c2nc3ccccc3s2)C1 (stereo not shown) [H2, O=C(\C=C\c1cn(Cc2ccccc2)nn1)N3CCCC(C3)c4nc5ccccc5s4]
[1]; [8]
  IC50: > 10 µM
[2]; [9]
  IC50: 1 to 10 µM
[3]; [11]
  IC50: > 10 µM

## Cc1cc(C)c(C(=O)CSc2nc3ccccc3c(=O)n2Cc2ccc(F)cc2)c(C)c1 [H4, Cc1cc(C)c(C(=O)CSC2=Nc3ccccc3C(=O)N2Cc4ccc(F)cc4)c(C)c1]
[1]; [8]
  IC50 (μM) OATP1B3: no effect
[2]; [9]
  IC50 (μM) OATP2B1: no effect
[3]; [10]
  IC50 (μM) OATP1B1: no effect

## COC(=O)c1c(NC(=O)CN2C(=O)NC3(CCc4ccccc4C3)C2=O)sc2c1CCCCC2 (stereo not shown) [H5, COC(=O)c1c2CCCCCc2sc1NC(=O)CN3C(=O)NC4(CCc5ccccc5C4)C3=O]
[1]; [7]
  IC50: 6.95 µM
[1]; human, pH 5.5, probe pyranine 20 μM, initial three-point screen (1, 10, 100 μM), category by concentration needed for 50% inhibition, pyranine 20 μM, 30 min, pH 5.5
  IC50 at 30 min: > 10 µM
[1]; ratio of IC50 OATP1B3 / OATP2B1
  fold lower affinity on OATP1B3 than on OATP2B1: 18 fold
[2]; [7]
  IC50: 0.39 µM
[2]; [9]
  IC50: < 1 µM
[3]; full dose-response curve, eight concentrations, Hill1 fit, read-out: IC50 (μM) OATP1B1
  IC50: ~25 µM
[3]; human, pH 5.5, probe pyranine 10 μM, initial three-point screen (1, 10, 100 μM), category by concentration needed for 50% inhibition, pyranine 10 μM, 15 min, pH 5.5, read-out: IC50 (μM) OATP1B1
  IC50 at 15 min: > 10 µM

## CC(=O)Nc1ccc(S(=O)(=O)Nc2nc3ccccc3nc2NCc2ccccc2)cc1 [H6, CC(=O)Nc1ccc(cc1)S(=O)(=O)Nc2nc3ccccc3nc2NCc4ccccc4]
[1]; [8]
  IC50 (μM) OATP1B3: no effect
[2]; [9]
  IC50: > 10 µM
[3]; [10]
  IC50 (μM) OATP1B1: no effect

## C#Cc1cccc(Nc2ncnc3cc(OCCOC)c(OCCOC)cc23)c1 [erlotinib]
[4]
  pIC50: 6.26

## C[C@]12CC[C@@H]3c4cc(P(=O)(O)O)ccc4CC[C@H]3[C@@H]1CCC2=O [estra-1,3,5(10)-trien-17-on-2-ylphosphonate]
[5]
  pIC50: 7.39

## CC[C@H](C)C(=O)O[C@H]1C[C@H](O)C=C2C=C[C@H](C)[C@H](CC[C@@H](O)C[C@@H](O)CC(=O)O)[C@H]21 [pravastatin]
[6]
  pIC50: 5.44
